Experimental data as given in the NIST ThermoML archive (doi:10.1021/je500381c).

Test: xn = mol fraction of the nth substance listed
Settings: for mass density / viscosity: 100 kPa, Liquid; for mass density: Vibrating tube method; for surface tension liquid-gas: Drop volume

CC12CC3CC(C)(C1)CC(C)(C3)C2 [1,3,5-trimethyladamantane] + CCCCCCCO
Settings	mass density [kg/m3]	surface tension liquid-gas [mN/m]	viscosity [mPa·s]
293.15 K, x2 = 0	887.48	–	2.601
293.15 K, x2 = 0.1001	882.47	–	2.626
293.15 K, x2 = 0.2001	877.46	–	2.775
293.15 K, x2 = 0.3002	872.11	–	2.97
293.15 K, x2 = 0.4004	866.49	–	3.242
293.15 K, x2 = 0.5001	860.53	–	3.5
293.15 K, x2 = 0.6002	854.11	–	4.051
293.15 K, x2 = 0.7001	847.23	–	4.645
293.15 K, x2 = 0.7999	839.77	–	5.371
293.15 K, x2 = 0.9002	831.44	–	6.221
298.15 K, x2 = 0	883.99	26.17	2.338
298.15 K, x2 = 0.1001	878.9	26.19	2.349
298.15 K, x2 = 0.2001	873.88	26.22	2.469
298.15 K, x2 = 0.3002	868.52	26.26	2.632
298.15 K, x2 = 0.4004	862.91	26.32	2.854
298.15 K, x2 = 0.5001	856.94	26.34	3.131
298.15 K, x2 = 0.6002	850.53	26.36	3.51
298.15 K, x2 = 0.7001	843.66	26.32	3.99
298.15 K, x2 = 0.7999	836.22	26.3	4.567
298.15 K, x2 = 0.9002	827.93	26.29	5.229
303.15 K, x2 = 0	880.47	–	2.118
303.15 K, x2 = 0.1001	875.31	–	2.114
303.15 K, x2 = 0.2001	870.27	–	2.212
303.15 K, x2 = 0.3002	864.91	–	2.35
303.15 K, x2 = 0.4004	859.29	–	2.533
303.15 K, x2 = 0.5001	853.32	–	2.758
303.15 K, x2 = 0.6002	846.91	–	3.066
303.15 K, x2 = 0.7001	840.05	–	3.457
303.15 K, x2 = 0.7999	832.63	–	3.924
303.15 K, x2 = 0.9002	824.38	–	4.464
308.15 K, x2 = 0	876.94	–	1.93
308.15 K, x2 = 0.1001	871.72	–	1.911
308.15 K, x2 = 0.2001	866.65	–	1.992
308.15 K, x2 = 0.3002	861.27	–	2.108
308.15 K, x2 = 0.4004	855.65	–	2.261
308.15 K, x2 = 0.5001	849.68	–	2.444
308.15 K, x2 = 0.6002	843.28	–	2.699
308.15 K, x2 = 0.7001	836.41	–	3.015
308.15 K, x2 = 0.7999	829.02	–	3.396
308.15 K, x2 = 0.9002	820.8	–	3.841
313.15 K, x2 = 0	873.4	–	1.765
313.15 K, x2 = 0.1001	868.1	–	1.737
313.15 K, x2 = 0.2001	863	–	1.802
313.15 K, x2 = 0.3002	857.62	–	1.899
313.15 K, x2 = 0.4004	851.98	–	2.027
313.15 K, x2 = 0.5001	846.01	–	2.178
313.15 K, x2 = 0.6002	839.62	–	2.387
313.15 K, x2 = 0.7001	832.76	–	2.648
313.15 K, x2 = 0.7999	825.37	–	2.957
313.15 K, x2 = 0.9002	817.19	–	3.327
318.15 K, x2 = 0	869.86	–	1.621
318.15 K, x2 = 0.1001	864.47	–	1.585
318.15 K, x2 = 0.2001	859.34	–	1.636
318.15 K, x2 = 0.3002	853.95	–	1.719
318.15 K, x2 = 0.4004	848.3	–	1.826
318.15 K, x2 = 0.5001	842.32	–	1.952
318.15 K, x2 = 0.6002	835.93	–	2.124
318.15 K, x2 = 0.7001	829.07	–	2.338
318.15 K, x2 = 0.7999	821.7	–	2.593
318.15 K, x2 = 0.9002	813.54	–	2.899
323.15 K, x2 = 0	866.31	–	1.494
323.15 K, x2 = 0.1001	860.82	–	1.452
323.15 K, x2 = 0.2001	855.66	–	1.494
323.15 K, x2 = 0.3002	850.25	–	1.561
323.15 K, x2 = 0.4004	844.59	–	1.652
323.15 K, x2 = 0.5001	838.61	–	1.756
323.15 K, x2 = 0.6002	832.21	–	1.899
323.15 K, x2 = 0.7001	825.35	–	2.049
323.15 K, x2 = 0.7999	817.99	–	2.287
323.15 K, x2 = 0.9002	809.87	–	2.541
328.15 K, x2 = 0	862.76	–	1.384
328.15 K, x2 = 0.1001	857.16	–	1.335
328.15 K, x2 = 0.2001	851.96	–	1.368
328.15 K, x2 = 0.3002	846.53	–	1.424
328.15 K, x2 = 0.4004	840.86	–	1.5
328.15 K, x2 = 0.5001	834.86	–	1.587
328.15 K, x2 = 0.6002	828.46	–	1.707
328.15 K, x2 = 0.7001	821.6	–	1.855
328.15 K, x2 = 0.7999	814.26	–	2.029
328.15 K, x2 = 0.9002	806.15	–	2.239
333.15 K, x2 = 0	859.2	–	1.284
333.15 K, x2 = 0.1001	853.48	–	1.232
333.15 K, x2 = 0.2001	848.24	–	1.257
333.15 K, x2 = 0.3002	842.78	–	1.303
333.15 K, x2 = 0.4004	837.09	–	1.367
333.15 K, x2 = 0.5001	831.09	–	1.44
333.15 K, x2 = 0.6002	824.68	–	1.54
333.15 K, x2 = 0.7001	817.82	–	1.663
333.15 K, x2 = 0.7999	810.48	–	1.808
333.15 K, x2 = 0.9002	802.4	–	1.984
